{"source": "paper PMC9597002", "about": "“The Combination of Individual Herb of Mi-Jian-Chang-Pu Formula Exerts a Synergistic Effect in the Treatment of Ischemic Stroke in Rats” (Oxidative Medicine and Cellular Longevity, 2022)", "key": {"MCAO rats [1]": {"test_system": "MCAO rats", "experiment": "Infarct volume measurement by TTC staining", "assay_type": "in vivo, Sprague-Dawley rats", "conditions": "oral once daily 14 days, compared with model group"}, "MCAO rats [2]": {"test_system": "MCAO rats", "experiment": "Brain histopathology by HE staining", "conditions": "oral once daily 14 days", "experimental": "(§1) 0.5% CMC-Na was used as vehicle with an equal volume (100 g/ml body-weight) for each rat. Treatments were administered once daily by oral gavage for 14 consecutive days. After the last administration, rats were fasted for 12 h, MCAO surgery was performed according to the reference by H Nagasawa and K Kogure. […] After 2 h of sustained MCAO, reperfusion was conducted, and the rats in sham operation group received the same surgical procedures except that the occluding monofilament was not inserted.\nFor brain histology, the tissue was fixed in 4% paraformaldehyde for 24 h, then the brain slices were rinsed, dehydrate, paraffin embedded, sectioned, and stained with hematoxylin-eosin (HE). The histopathological changes were observed under optical microscope."}, "MCAO rats [3]": {"test_system": "MCAO rats", "experiment": "Neurological deficit score (Longa's five-point scale) 24 h after reperfusion", "conditions": "oral once daily 14 days, compared with model group", "experimental": "as §1\n24 h after reperfusion, all rats were tested for sensorimotor ability according to the Longa's five-point scale (0, no neurologic deficit; 1, a slight forelimb flexion; 2 severe forelimb flexion and decreased resistance to lateral push; 3, spontaneous rotation or contralateral rotation to the affected side; 4, consciousness reduced and unable or difficult to move; 5, no response to stimulation)."}}, "data": [{"smiles": "C/C=C\\c1cc(OC)c(OC)cc1OC", "note": "[B1, β-asarone]", "values": [{"measurement": "Cerebral infarction volume ratio (TTC staining)", "setting": "MCAO rats [1]", "result": "reduce the infarction volume significantly"}, {"measurement": "Histopathological changes in brain tissue (HE staining)", "setting": "MCAO rats [2]", "result": "protective effect on brain injury"}, {"measurement": "Neurological deficit score", "setting": "MCAO rats [3]", "result": "significant effects"}]}, {"smiles": "CC(/C=C/C=C(\\C)C(=O)O[C@@H]1O[C@H](CO[C@@H]2O[C@H](CO)[C@@H](O)[C@H](O)[C@H]2O)[C@@H](O)[C@H](O)[C@H]1O)=C\\C=C\\C=C(C)\\C=C\\C=C(/C)C(=O)O[C@@H]1O[C@H](CO[C@@H]2O[C@H](CO)[C@@H](O)[C@H](O)[C@H]2O)[C@@H](O)[C@H](O)[C@H]1O", "note": "[A1, crocin I]", "values": [{"measurement": "Cerebral infarction volume ratio (TTC staining)", "setting": "MCAO rats [1]", "result": "reduce the infarction volume significantly"}, {"measurement": "Histopathological changes in brain tissue (HE staining)", "setting": "MCAO rats [2]", "result": "protective effect on brain injury"}, {"measurement": "Neurological deficit score", "setting": "MCAO rats [3]", "result": "significant effects"}]}]}
